Tests used:
[1] = cited from earlier work
T1 relaxation in water = type: physicochemical
T1 relaxation in plasma = type: physicochemical

SMILES	distribution ([1]; intravenous injection)	passage of intact cell membranes and extrarenal excretion ([1]; intravenous injection)	route of excretion ([1]; intravenous injection)	rate of excretion in renal insufficiency ([1]; patients with limited kidney function)	T1 relaxation (T1 relaxation in water) [mmol⁻¹ s⁻¹]	T1 relaxation (T1 relaxation in plasma) [mmol⁻¹ s⁻¹]
CNC[C@H](O)[C@@H](O)[C@H](O)[C@H](O)CO.CNC[C@H](O)[C@@H](O)[C@H](O)[C@H](O)CO.O=C([O-])CN(CCN(CC(=O)[O-])CC(=O)O)CCN(CC(=O)[O-])CC(=O)O.[Gd+3] [MAGNEVIST]	extra-cellular	practically not at all observed	excreted via the kidneys by glomerular secretion	excreted only very slowly	–	–
C[NH2+]C[C@H](O)[C@@H](O)[C@H](O)[C@H](O)CO.O=C([O-])CN(CCN(CC(=O)[O-])CC(=O)[O-])CCN(CC(=O)[O-])CC(=O)Nc1ccccc1.[Gd+3] [Example 2, N-Methylglucamine Salt of the Gadolinium Complex of 3,6,9-Tris(carboxymethyl)-3,6,9-triazaundecanedioic Acid Phenyl Monoamide]	–	–	–	–	3.79 ± 0.16	5.45 ± 0.68
